Source: the NIST ThermoML archive (doi:10.1021/je900596d)

Conditions: for mass density: Vibrating tube method; for vapor or sublimation pressure: Closed cell (Static) method

FC(F)=C(F)C(F)(F)F [hexafluoropropene]
Conditions	mass density [kg/m3]
357.06 K, 1651 kPa, Fluid (supercritical or subcritical phases)	106.72
357.06 K, 1667.9 kPa, Fluid (supercritical or subcritical phases)	108.13
357.06 K, 1685.3 kPa, Fluid (supercritical or subcritical phases)	109.66
357.06 K, 1702 kPa, Fluid (supercritical or subcritical phases)	111.18
357.06 K, 1718.9 kPa, Fluid (supercritical or subcritical phases)	112.75
357.06 K, 1735.9 kPa, Fluid (supercritical or subcritical phases)	114.23
357.06 K, 1753 kPa, Fluid (supercritical or subcritical phases)	115.8
357.06 K, 1769.9 kPa, Fluid (supercritical or subcritical phases)	117.29
357.06 K, 1786.9 kPa, Fluid (supercritical or subcritical phases)	118.92
357.06 K, 1803 kPa, Fluid (supercritical or subcritical phases)	120.39
357.06 K, 1819.2 kPa, Fluid (supercritical or subcritical phases)	121.89
357.06 K, 1847.5 kPa, Fluid (supercritical or subcritical phases)	124.55
357.06 K, 1875.7 kPa, Fluid (supercritical or subcritical phases)	127.36
357.06 K, 1903.2 kPa, Fluid (supercritical or subcritical phases)	130.04
357.06 K, 1931.1 kPa, Fluid (supercritical or subcritical phases)	132.82
357.06 K, 1957.3 kPa, Fluid (supercritical or subcritical phases)	135.5
357.06 K, 1986 kPa, Fluid (supercritical or subcritical phases)	138.47
357.06 K, 2038.9 kPa, Fluid (supercritical or subcritical phases)	144.14
357.06 K, 2064.4 kPa, Fluid (supercritical or subcritical phases)	146.83
357.06 K, 2091.5 kPa, Fluid (supercritical or subcritical phases)	149.92
357.06 K, 2116.5 kPa, Fluid (supercritical or subcritical phases)	152.72
357.06 K, 2145.2 kPa, Fluid (supercritical or subcritical phases)	156.08
357.06 K, 2172.7 kPa, Fluid (supercritical or subcritical phases)	159.34
357.06 K, 2200.4 kPa, Fluid (supercritical or subcritical phases)	162.66
357.06 K, 2225 kPa, Fluid (supercritical or subcritical phases)	165.74
357.06 K, 2253.6 kPa, Fluid (supercritical or subcritical phases)	169.3
357.06 K, 2283.1 kPa, Fluid (supercritical or subcritical phases)	173.12
357.06 K, 2311 kPa, Fluid (supercritical or subcritical phases)	176.88
357.06 K, 2341.3 kPa, Fluid (supercritical or subcritical phases)	180.98
357.06 K, 2367.5 kPa, Fluid (supercritical or subcritical phases)	184.68
357.06 K, 2394.8 kPa, Fluid (supercritical or subcritical phases)	188.59
357.06 K, 2419.3 kPa, Fluid (supercritical or subcritical phases)	192.26
357.06 K, 2446.6 kPa, Fluid (supercritical or subcritical phases)	196.5
357.06 K, 2475.8 kPa, Fluid (supercritical or subcritical phases)	201.14
357.06 K, 2500.5 kPa, Fluid (supercritical or subcritical phases)	205.14
357.06 K, 2527.1 kPa, Fluid (supercritical or subcritical phases)	209.62
357.06 K, 2552.5 kPa, Fluid (supercritical or subcritical phases)	214.03
357.06 K, 2579.2 kPa, Fluid (supercritical or subcritical phases)	218.88
357.06 K, 2607.1 kPa, Fluid (supercritical or subcritical phases)	224.15
357.06 K, 2634.5 kPa, Fluid (supercritical or subcritical phases)	229.51
357.06 K, 2660.8 kPa, Fluid (supercritical or subcritical phases)	234.97
357.06 K, 2686.6 kPa, Fluid (supercritical or subcritical phases)	240.49
357.06 K, 2714.4 kPa, Fluid (supercritical or subcritical phases)	246.83
357.06 K, 2743.6 kPa, Fluid (supercritical or subcritical phases)	253.76
357.06 K, 2771 kPa, Fluid (supercritical or subcritical phases)	260.83
357.06 K, 2795.2 kPa, Fluid (supercritical or subcritical phases)	267.52
357.06 K, 2819.6 kPa, Fluid (supercritical or subcritical phases)	274.69
357.06 K, 2846 kPa, Fluid (supercritical or subcritical phases)	283.07
357.06 K, 2871.1 kPa, Fluid (supercritical or subcritical phases)	291.79
357.06 K, 2896.7 kPa, Fluid (supercritical or subcritical phases)	302.07
357.06 K, 2920.7 kPa, Fluid (supercritical or subcritical phases)	312.54
357.06 K, 2945.8 kPa, Fluid (supercritical or subcritical phases)	324.88
357.06 K, 2970.4 kPa, Fluid (supercritical or subcritical phases)	338.77
357.06 K, 2995.1 kPa, Fluid (supercritical or subcritical phases)	355.46
357.06 K, 3000.2 kPa, Fluid (supercritical or subcritical phases)	359.35
357.06 K, 3002.3 kPa, Fluid (supercritical or subcritical phases)	361.25
357.06 K, 3004.8 kPa, Fluid (supercritical or subcritical phases)	363.25
357.06 K, 3007 kPa, Fluid (supercritical or subcritical phases)	365.19
357.06 K, 3009.1 kPa, Fluid (supercritical or subcritical phases)	367.24
357.06 K, 3011.2 kPa, Fluid (supercritical or subcritical phases)	369.24
357.06 K, 3013.5 kPa, Fluid (supercritical or subcritical phases)	371.38
357.06 K, 3017.2 kPa, Fluid (supercritical or subcritical phases)	375.58
357.06 K, 3020.4 kPa, Fluid (supercritical or subcritical phases)	379.51
357.06 K, 3023.1 kPa, Fluid (supercritical or subcritical phases)	383.27
357.06 K, 3025.3 kPa, Fluid (supercritical or subcritical phases)	386.99
357.06 K, 3027.3 kPa, Fluid (supercritical or subcritical phases)	391.04
358 K, 3077.4 kPa, Liquid	720.16
358 K, 3079.5 kPa, Liquid	727.89
358 K, 3081.5 kPa, Liquid	734.5
358 K, 3083.8 kPa, Liquid	736.72
358 K, 3086 kPa, Liquid	740.82
358 K, 3088.2 kPa, Liquid	744.57
358 K, 3109.3 kPa, Liquid	770.42
358 K, 3111.5 kPa, Liquid	772.98
358 K, 3116.7 kPa, Liquid	777.53
358 K, 3119.3 kPa, Liquid	780.08
358 K, 3122.7 kPa, Liquid	783.21
358 K, 3129.1 kPa, Liquid	787.86
358 K, 3135.8 kPa, Liquid	792.11
358 K, 3142.4 kPa, Liquid	796.64
358 K, 3148.6 kPa, Liquid	799.79
358 K, 3156.4 kPa, Liquid	804.75
358 K, 3177.8 kPa, Liquid	815.22
358 K, 3185.3 kPa, Liquid	818.23
358 K, 3192.2 kPa, Liquid	821.21
358 K, 3200.1 kPa, Liquid	824.15
358 K, 3210.8 kPa, Liquid	828.42
358 K, 3221.1 kPa, Liquid	831.96
358 K, 3231.6 kPa, Liquid	835.41
358 K, 3241.7 kPa, Liquid	838.72
358 K, 3252.2 kPa, Liquid	841.71
358 K, 3262.8 kPa, Liquid	844.89
358 K, 3273.9 kPa, Liquid	847.83
358 K, 3295.3 kPa, Liquid	853.38
358 K, 3306 kPa, Liquid	855.88
358 K, 3329 kPa, Liquid	860.99
358 K, 3350.7 kPa, Liquid	865.7
358 K, 3372.9 kPa, Liquid	869.87
358 K, 3394.9 kPa, Liquid	874.14
358 K, 3416.1 kPa, Liquid	877.89
358 K, 3438.3 kPa, Liquid	881.69
358 K, 3460.7 kPa, Liquid	885.32
358 K, 3482.9 kPa, Liquid	888.76
358 K, 3504.8 kPa, Liquid	892.14
358 K, 3528.7 kPa, Liquid	895.48
358 K, 3550.1 kPa, Liquid	898.37
358 K, 3572 kPa, Liquid	901.37
358 K, 3593.3 kPa, Liquid	903.96
358 K, 3626 kPa, Liquid	907.95
358 K, 3637.5 kPa, Liquid	909.42
358 K, 3650.1 kPa, Liquid	910.79
358 K, 3672 kPa, Liquid	913.13
358 K, 3692.4 kPa, Liquid	915.48
358 K, 3737.5 kPa, Liquid	920.3
358 K, 3781.6 kPa, Liquid	924.71
358 K, 3805.3 kPa, Liquid	927.04
358 K, 3827.1 kPa, Liquid	929.16
358 K, 3849.3 kPa, Liquid	931.26
358 K, 3870.8 kPa, Liquid	933.33
358 K, 3892.8 kPa, Liquid	935.23
358 K, 3914.1 kPa, Liquid	937.13
358 K, 3959.7 kPa, Liquid	940.96
358 K, 3983.8 kPa, Liquid	943.01
358 K, 4012.7 kPa, Liquid	945.18
358 K, 4046.1 kPa, Liquid	947.77
358 K, 4078.7 kPa, Liquid	950.34
358 K, 4111.6 kPa, Liquid	952.85
358 K, 4143.9 kPa, Liquid	955.16
358 K, 4176.6 kPa, Liquid	957.49

Liquid
Conditions	vapor or sublimation pressure [kPa]
357.06 K	3017.5
357.27 K	3031
357.47 K	3044.2
357.56 K	3050.4
